What all share (type): cell-based
Assay [1] concerns U937 cells. The assay is described as follows: KCN (15 mM)-induced necrosis in U937 cells, LDH release assay, Humanin derivative with Elastase inhibitor III (Example 2). To be noted: 7 hours. The protocol: (§1) The U937 cells are p53 minus monocytic cell line. The cells were grown at 37° C. in the presence of 5% CO2 in RPMI-1640 medium supplemented with 10% heat-inactivated fetal bovine serum (FCS), 2 Mm glutamine, 100 μg/ml penicillin, and 100 μg/ml streptomycin. The cells were split every third day.
U937 cells were cultured in complete RPMI-1640 medium, washed once and seeded at 4.5×10^5 cells/ml in glucose free medium 1 hour before treatment. Humanin or its derivatives of SEQ ID MOs 1-6 and Elastase inhibitor III (EI-III) and vehicle were added 30 minutes before the addition of KCN (15 mM). Following the treatment, the cells were incubated for 7 hours and cell death was measured via the LDH release assay.
(§2) The amount of LDH released from lysed cells is a sensitive measure of cell death. In this study, necrotic cell death was measured in 96-well plates using Promega's CytoTox 96 Non-Radioactive Cytotoxicity Assay kit, which accurately and rapidly measures cell death by quantitating the release of lactate dehydrogenase (LDH), a stable cytosolic enzyme from lysed cells.
(§3) At the end of each experiment, the cells were centrifuged at 240×g for 10 minutes at room temperature. Next, the supernatant was collected and 50 μL aliquots were taken for the LDH release assay. The LDH content from cells lysed in 0.1% Tryton X-100 for 10-15 minutes was used as a measure for total LDH content. The LDH released in the treatment (after subtracting the blank measure) was used for measuring necrotic cell death as a percentage from total LDH. A measurement of the absorbance value at 490 nm was preformed by ELISA READER, 30 minutes after the addition of the LDH reaction solution.

Assay [2] has as its system U937 cells. As to the kind of experiment: KCN (5 mM)-induced necrosis in U937 cells, LDH release assay, Humanin derivative with Mimosine (Example 3). To be noted: 7 hours. How it is done: as §1
U937 cells were cultured in complete RPMI-1640 medium, washed once and seeded at 4.5×10^5 cells/ml in glucose free medium 1 hour before treatment. Humanin or its derivatives of SEQ ID MOs 1-6 and Mimosine and vehicle were added 30 minutes before the addition of KCN (5 mM). Following the treatment, the cells were incubated for 7 hours and cell death was measured via the LDH release assay.
as §2, §3

A further assay concerns U-937 cells. The assay is described as follows: KCN-induced necrosis in U-937 cells, LDH release (Example 1). The conditions noted are these: 10 μM peptide, LDH release after 7 hours (FIG. 1). How it is done:
FIGS. 1A-1B. […] LDH release was measured after 7 hours (see, FIG. 1A) % LDH release with the crude data; (see, FIG. 1B) The amount of LDH released of control cells was subtracted from all treatments, P*<0.02. […] The effects of HN and its derivatives on necrotic cell death induced by staurosporine/oligomicyn in PC12 cells are depicted in FIG. 4 (by LDH release) and FIG. 5 (ethydium bromide and acridine orange staining).

In another assay the test system is PC12 cells. As to the kind of experiment: KCN-induced necrosis in PC12 cells, LDH release. The conditions noted are these: LDH release after 5 hours (FIG. 2 and FIG. 3). How it is done:
FIGS. 2A-2B. […] LDH release was measured after 5 hours (see, FIG. 2A) % LDH release with the crude data; (see, FIG. 2B) The amount of LDH released from control cells was subtracted from all treatments, P*<0.05. FIG. 3. Is a bar graph showing the effect of different HN17 concentrations on KCN-induced necrosis in PC12 cells as assessed by the determination of LDH release. PC12 cells were treated with or without 7 mM KCN for 5 hours in the presence or absence of different concentrations of HN17 (1-30 μM), and then LDH release from the cells was determined, P*<0.04. […] The effects of HN and its derivatives on necrotic cell death induced by staurosporine/oligomicyn in PC12 cells are depicted in FIG. 4 (by LDH release) and FIG. 5 (ethydium bromide and acridine orange staining).

Residues, ends and D or L forms follow the SMILES beside them. *: point of attachment. MeOSuc = COC(=O)CCC(=O)*; CH2Cl = ClC*

With `COC(=O)CCC(=O)N[C@@H](C)C(=O)N[C@@H](C)C(=O)N1CCC[C@H]1C(=O)N[C@H](C(=O)CCl)C(C)C` [EI-III, HLE Inhibitor MeOSuc-AAPV-CMK] (MeOSuc-AAPV-CH2Cl), the “impact on necrotic cell death induced by KCN” value with U937 cells [1] (EI-III at 50 μM) is “no impact”. Also, the “inhibition of cell death by necrosis” value with U937 cells [1] (EI-III at 100 μM) and in the assay on U937 cells [1] (EI-III at 300 μM) was 75% each time.

`NC(Cn1ccc(=O)c(O)c1)C(=O)O` (centres unmarked) [mimosine, Mimosine, reference compound]: the “inhibition of necrotic cell death” value in the assay on U937 cells [2] (mimosine at 30 μM) and in the assay on U937 cells [2] (mimosine at 70 μM) was “no inhibition” each time. In addition, the “inhibition of cell death by necrosis” value in the assay with U937 cells [2] (mimosine at 300 μM) came out at 12%.

With “MAPAGASCLLLLTGEIDLPVKRRA [AGA-HNG, Humanin derivative]”, the “protection against KCN-induced necrotic cell death as measured by LDH release” value with U-937 cells is given as “conferred protection”. For the same molecule, the “impact on necrotic cell death induced by KCN” value with U937 cells [1] (AGA-HNG at 1 μM) and with U937 cells [1] (AGA-HNG at 10 μM) was “no impact” each time.

For the molecule “MAPRGFSCLLLLTGEIDLPVKRRA [HNG, Humanin derivative]”, the “inhibition of necrotic cell death” value in the assay with U937 cells [2] (HNG at 1 μM), with U937 cells [2] (HNG at 10 μM) and in the assay on U937 cells [2] (HNG at 301 μM) was “no inhibition” in each case.

Regarding “PRGFSCLLLLTSEIDLP [HN17, Humanin derivative; the short name HN17 is also printed for AGA-C8R-HNG17]”, the figures for the “protection against KCN-induced necrotic cell death as measured by LDH release” value with U-937 cells and with PC12 cells were “conferred protection” and “confers protection”, respectively.

The values above are taken from US20200009221A1, “METHODS FOR INHIBITING NECROSIS” (priority 2010, published 2020).
